T1: human VEGF165 (Homo sapiens, UniProt P15692)
T1 construct: made in house; host or cells: HEK293T
T1 sequence (P15692 27-191 isoform P15692-4): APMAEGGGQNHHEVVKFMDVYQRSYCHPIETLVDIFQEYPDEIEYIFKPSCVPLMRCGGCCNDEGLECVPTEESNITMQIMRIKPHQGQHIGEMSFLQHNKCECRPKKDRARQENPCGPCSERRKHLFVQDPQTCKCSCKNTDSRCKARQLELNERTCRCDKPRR


What was measured:
[1] = test system: mouse model of oxygen-induced retinopathy (OIR); assay: SA-β-gal staining of retinas in oxygen-induced retinopathy (OIR) after intravitreal injection; format: in vivo; conditions: single intravitreal injection at P12, vs vehicle
Text: (§1) O2-induced retinopathy. Mouse pups from different strains (C57Bl/6 WT, LyzM-Cre, LysM-Cre/IRE1^fl/fl, LysM-Cre/IRE1^+/+, IRE1^fl/fl and LysM-Cre/ROSA26EYFP^fl/fl), and their fostering mothers (CD1, Charles River) were exposed to 75% 02 from postnatal day 7 (P7) to day 12 and returned to room air. This model serves as a proxy to human ocular neovascular diseases such as ROP and diabetic retinopathy characterized by a late phase of destructive pathological angiogenesis (72, 73). Upon return to room air, hypoxia-driven neovascularization (NV) develops from P14 onwards (27). We enucleated eyes at different time points and dissected the retinas for mRNA, protein assays or flatmounting.
Senescence-associated β-galactosidase (SA-β-gal) assay. Senescence-associated β-galactosidase assays were carried out as described previously (57, 75)
Quantification of SA-β-gal in vivo. Senescence-associated β-galactosidase staining in flatmount retinas or sagittal eye sections were analyzed using Image J software as described in FIG. 14.
(§2) Intravitreal injections. P2, P10 or P12 C57BL/6 pups were anesthetized with 3.0% isoflurane and injected in the vitreous chamber with 0.5 μL of lentivirus (see “Lentivirus production”), recombinant SEMA3A (100 ng/μL), metformin (10 μg/μL) or Aflibercept (10 μg/uL) using a 10-μL Hamilton syringe fitted with a […] glass capillary tip. Approximately 254±11.0 ng/μL of lentivirus Sh_GFP and 323.3±15.3 ng/μL containing Sh_Sema3a, Lv.Cre (15.0 ng/mL), Lv.GFP (15.0 ng/mL) was injected. Virus titers were assessed with the p24 ELISA kit (ZeptoMetrix). The titers of the lentiviruses used were (in ng p24) LV.Sh_RNA IRE1α (8.52 ng/mL), and LV.Sh_RNA.GFP (8.47 ng/mL).

[2] = test system: mouse model of oxygen-induced retinopathy (OIR); assay: Immunoblot and RT-qPCR of OIR retinas after intravitreal injection; format: in vivo; conditions: intravitreal injection at P12, P14 OIR retinas
Text: as §1
(§3) Semi-quantitative and Real-time PCR analysis. We isolated RNA using the GenElute™ Mammalian Total RNA Miniprep Kit (Sigma) and performed a digestion with DNase I to prevent amplification of genomic DNA. We reversed transcribed the RNA using M-MLV reverse transcriptase and analyzed gene expression using SybrGreen™ in an ABI Biosystems Real-Time PCR machine. β-actin was used as a reference gene. […] We investigated the splicing of XBP-1 by incubating the XBP-1 semi-quantitative PCR product with 0.4 U/μL of PstI enzyme for 5 hrs at 37° C. followed by separation on 2.5% agarose gel.
as §2
(§4) Western blotting. We enucleated eyes at varying time points and rapidly dissected and homogenized retinas for assessment of retinal protein levels. Protein concentration from retinal homogenate and cell lysates were assessed by BCA assay (Sigma), and then 30 μg of protein analyzed for each condition by standard SDS-PAGE technique.

[3] = test system: mouse model of oxygen-induced retinopathy (OIR); assay: Avascular area and pre-retinal neovascularization in OIR flatmount retinas; format: in vivo
[4] = target: T2, IRE1α's endoribonuclease activity (Mus musculus, UniProt Q9EQY0); assay: SEMA3A-driven senescence in J774 cells with IRE1α RNase inhibitor; format: cell-based
T2 construct: endogenous in cells; host or cells: J774 (J774A.1) mouse macrophage-like cells
T2 sequence (Q9EQY0 21-977): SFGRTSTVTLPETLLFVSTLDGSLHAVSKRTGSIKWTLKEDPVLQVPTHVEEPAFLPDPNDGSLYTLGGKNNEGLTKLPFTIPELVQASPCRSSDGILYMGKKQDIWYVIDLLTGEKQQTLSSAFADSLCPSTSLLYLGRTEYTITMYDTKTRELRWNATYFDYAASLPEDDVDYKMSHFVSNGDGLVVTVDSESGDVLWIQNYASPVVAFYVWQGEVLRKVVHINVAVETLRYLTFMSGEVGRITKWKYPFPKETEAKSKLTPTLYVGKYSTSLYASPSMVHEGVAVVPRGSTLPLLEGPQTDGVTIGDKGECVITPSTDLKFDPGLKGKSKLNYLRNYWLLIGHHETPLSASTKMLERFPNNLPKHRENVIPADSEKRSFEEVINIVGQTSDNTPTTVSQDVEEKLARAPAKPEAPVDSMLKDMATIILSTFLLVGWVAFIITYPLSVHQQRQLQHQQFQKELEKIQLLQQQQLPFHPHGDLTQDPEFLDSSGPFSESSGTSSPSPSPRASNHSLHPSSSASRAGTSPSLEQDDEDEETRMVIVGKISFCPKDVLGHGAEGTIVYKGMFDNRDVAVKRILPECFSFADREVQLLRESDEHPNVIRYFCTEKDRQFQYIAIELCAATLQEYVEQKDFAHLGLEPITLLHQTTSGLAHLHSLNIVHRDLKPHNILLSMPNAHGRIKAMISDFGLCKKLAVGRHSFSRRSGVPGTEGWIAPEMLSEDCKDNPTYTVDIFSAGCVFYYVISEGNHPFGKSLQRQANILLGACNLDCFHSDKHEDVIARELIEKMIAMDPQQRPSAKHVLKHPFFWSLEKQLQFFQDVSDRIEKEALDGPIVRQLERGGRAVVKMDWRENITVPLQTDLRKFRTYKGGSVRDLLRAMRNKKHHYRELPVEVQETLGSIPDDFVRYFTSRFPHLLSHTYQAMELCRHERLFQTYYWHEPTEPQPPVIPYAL
Procedure: FIG. 7C: Representative confocal immunofluorescence staining of γH2AX and DAPI of J774 macrophages stimulated with SEMA3A (100 ng/mL) or vehicle for 7 days (Scale bars are 100 μm). Higher magnification views of the outlined areas are shown (Scale bars are 50 μm). Immunoblots (FIG. 7D) for the XBP1(s) (spliced isoform) and PCR (FIG. 7E) for XBP1(s) and unspliced XBP1 (u) in J774 cell lysates treated with vehicle, S3A (100 ng/ml) and/or 4μ8c (1 ng/ml) at day 7 post-treatment. FIG. 7F: RT-qPCR for levels of Pai1, II6, II1β, Tgf-β1, Tp53, Ire1α and Tnfα in J774 stimulated with SEMA3A alone or with 4μ8c. β-actin was used as a reference gene. ***P<0.0001, *P<0.005. Scale bars: 100 μm for C & G. High mag C is 50 μm. Data are presented as mean±SEM;
To determine whether SEMA3A-driven senescence was occurring through IRE1α's kinase or RNAse activity, the selective cell-permeable coumarin o-hydroxyaldehyde pharmacological inhibitor of IRE1α's endoribonuclease activity, 4μ8c, was used. Exposure to 4μ8c (FIG. 7D) prevented SEMA3A-induced growth arrest and abrogated SEMA3A-induced senescence (data not shown). […] Ultimately, pharmacological inhibition of the endoribonuclease activity of IRE1α inhibited production of specific senescence-associated genes Vegf-a, Tgf-β1, II-1β, II-6, Pai-1, Tp53 while there is no effect on Tnf-α or IRE1α itself (FIG. 7F).
as §3, §4

human VEGF165 = target: T1, human VEGF165; assay: AP-VEGF165 binding assay on plate-coated purified traps (saturation curves, KD); conditions: AP-VEGF165 ligand, read-out: VEGF165 binding (dissociation constant)
Procedure: Production of AP-VEGF165. the coding sequence of the human VEGF165 variant 1 (NM_001025366) was sub-cloned in the pAPtag5 vector (GenHunter), in-frame with an Alkaline Phosphatase domain (AP-VEGF165). HEK293T cells were transfected with the AP-VEGF165 construct using a polyethylenimine (PEI) transfection method. Following the overnight transfection step, cells were cultured for an additional 60 hr in serum free media (In vitrogen). The cell media were collected and concentrated on a PES device (Pierce). The concentrated AP-VEGF165 ligand was analysed on PAGE-SDS and quantified using SimplyBlue safe stain (Life technologies).
Sema 3A and AP-VEGF165 binding assays. Saturation curves for the determinations of KD of binding to SEMA 3A or VEGF165 were obtained as follow. Wells of high protein binding 96 well plates (Maxisorp, Nunc) were coated with purified traps diluted in PBS and blocked afterward with binding buffer (PBS containing 2% casein and 0.05% Tween 20). The SEMA3A-FC (R&D systems) or AP-VEGF165 ligands were diluted in binding buffer over an extensive range of concentrations and added to wells. Following an overnight incubation, wells were washed with PBS containing 0.05% tween. Bound SEMA3a-FC was detected using an HRP-linked anti-Human IgG (Biorad) and ECL substrate (Pierce). Alternatively, bound AP-VEGF165 was detected using CPD star substrate (Roche). The Chemiluminescent signal was acquired on a TECAN reader. Dissociation constant (KD) were determined by non-linear curve fitting using the Graph Pad prism software.
The relative affinity of traps of the present invention to SEMA3A and VEGF has been assessed. Traps were prepared as described in Example 8.

SEMA3A-FC = assay: Sema 3A binding assay on plate-coated purified traps (saturation curves, KD)
Procedure, shortened: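 Purified traps coated on plates and blocked with PBS/2% casein/0.05% Tween 20; SEMA3A-FC titrated over a wide concentration range, incubated overnight. Bound ligand detected with HRP anti-human IgG and ECL chemiluminescence; KD from non-linear fit of saturation curves.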

[5] = intravitreal injection at P12 of OIR
[6] = J774 stimulated with SEMA3A alone or with 4μ8c

SEMA3A-mediated splicing and activation of XBP1 ([4]; J774, S3A 100 ng/ml, 4μ8c 1 ng/ml, day 7) | SEMA3A-induced growth arrest ([4]; J774 cells, data not shown) | SEMA3A-induced senescence ([4]; J774 cells, data not shown) | Tnf-α or IRE1α expression (RT-qPCR) [4, 6] | production of senescence-associated genes Vegf-a, Tgf-β1, Il-1β, Il-6, Pai-1, Tp53 (RT-qPCR) [4, 6] | Kd (human VEGF165) [nM] | Binding to SEMA3A (SEMA3A-FC; Table 2, Yes/No) | kd for SEMA3A relative to VEGF (SEMA3A-FC; see Table 6) | Molecule | SA-β-gal staining at P14 OIR [1] | SA-β-gal staining at P17 OIR (cellular senescence) [1] | drivers of senescence (Cdkn2a, Tp53, Il1β, Tgf-β1, Sema3a RT-qPCR) [2] | pathological neovascularization at P17 OIR ([3]; intravitreal injection at P12, vs vehicle) | rates of vascular regeneration at P14 [3, 5] | rates of vascular regeneration at P17 [3, 5]
 |  |  |  |  |  |  |  | Aflibercept: recombinant fusion protein made-up of the extracellular domains of human VEGF receptors 1 and 2 and an Fc portion | did not significantly influence | did not significantly influence | does not modulate | marked decrease | does not modulate | does not modulate
prevented | prevented | abrogated | no effect | inhibited |  |  |  | Cc1cc(=O)oc2c(C=O)c(O)ccc12 [Trap 4μ8c] |  |  |  |  |  | 
 |  |  |  |  | 20.1 | Yes | about 20 × | Trap M: NRP1 trap a1a2-b1, aa about 22-424; SEQ ID NOs 81/82 (protein) FRNDKCGDTIKIESPGYLTSPGYPHSYHPSEKCEWLIQAPDPYQRIMINFNPHFDLEDRDCKYDYVEVFDGENENGHFRGKFCGKIAPPPVVSSGPFLFIKFVSDYETHGAGFSIRYELFKRGPECSQNYTTPSGVIKSPGFPEKYPNSLECTYIVFAPKMSEIILEFESFDLEPDSNPPGGMFCRYDRLEIWDGFPDVGPHIGRYCGQKTPGRIRSSSGILSMVFYTDSAIAKEGFSANYSVLQSSVSEDFKCMEALGMESGEIHSDQITASSQYSTNWSAERSRLNYPENGWTPGEDSYREWIQVDLGLLRFVTAVGTQGAISKETKKKYYVKTYKIDVSSNGEDWITIKEGNKPVLFQGNTNPTDVVVAVFPKPLITRFVRIKPATWETGISMRFEVYGCRSGSKENLYFQG |  | significant attenuation |  |  |  | 
